Patent US12448388B2, “PRMT5 inhibitors and uses thereof” (Gilead Sciences, Inc., priority 2023, dated 2025)

system: HCT116 MTAP-deleted cell lines; test: Cell viability assay (CellTiter-Glo, 7 days), HCT116 MTAP-deleted; format: cell-based; conditions: Homo sapiens, HCT-116
Outline: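 Dose-response, PRMT5 inhibitors from DMSO serial dilution, pre-spotted; cells seeded onto compound plates. 7 d, 37 °C/5% CO2/90% RH. Readout: CTG luminescence → CC50.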

Compound	CC50
Nc1nc2cc(F)c(C(=O)N3CCC4(CC4)CC3c3ccc(C(F)(F)F)cn3)cc2n2cncc12 (stereo not shown) [Ff-225, (4-amino-7-fluoroimidazo[1,5-a]quinoxalin-8-yl)(5-(5-(trifluoromethyl)pyridin-2-yl)-6-azaspiro[2.5]octan-6-yl)methanone]	100 to 1000 nM

same assay, conditions: Homo sapiens, HCT-116; cell viability, HCT116 MTAP-deleted; class symbols; read-out: CC50

Compound	CC50
CN(C(=O)c1cc2c(cc1F)nc(N)c1cncn12)C1CCc2nc(Br)ccc21 (stereo not shown) [Ff-209, 4-amino-N-(2-bromo-6,7-dihydro-5H-cyclopenta[b]pyridin-5-yl)-7-fluoro-N-methylimidazo[1,5-a]quinoxaline-8-carboxamide]	100 to 1000 nM
Nc1nc2cc(F)c(C(=O)N(Cc3ccc(-c4cnn(C(F)(F)F)c4)cn3)C34CC(C3)C4)cc2n2cncc12 [Ff-211, 4-amino-N-(bicyclo[1.1.1]pentan-1-yl)-7-fluoro-N-((5-(1-(trifluoromethyl)-1H-pyrazol-4-yl)pyridin-2-yl)methyl)imidazo[1,5-a]quinoxaline-8-carboxamide]	< 100 nM
Nc1nc2cc(F)c(C(=O)N(Cc3ccc(-c4cnn(C(F)F)c4)cn3)C34CC(C3)C4)cc2n2cncc12 [Ff-212, 4-amino-N-(bicyclo[1.1.1]pentan-1-yl)-N-((5-(1-(difluoromethyl)-1H-pyrazol-4-yl)pyridin-2-yl)methyl)-7-fluoroimidazo[1,5-a]quinoxaline-8-carboxamide]	< 100 nM
CN(C(=O)c1cc2c(cc1F)nc(N)c1cncn12)[C@@H]1COc2cc(-c3cnn(C)c3)ccc21 [Ff-214, (S)-4-amino-7-fluoro-N-methyl-N-(6-(1-methyl-1H-pyrazol-4-yl)-2,3-dihydrobenzofuran-3-yl)imidazo[1,5-a]quinoxaline-8-carboxamide]	< 100 nM
CC(C)N(Cc1ccc(-c2ccnn2C(F)(F)F)cc1F)C(=O)c1cc2c(cc1F)nc(N)c1cncn12 [Ff-216]	< 100 nM
CC(C)N(Cc1ccc(-c2ccnn2C)cc1F)C(=O)c1cc2c(cc1F)nc(N)c1cncn12 [Ff-217, 4-amino-7-fluoro-N-(2-fluoro-4-(1-methyl-1H-pyrazol-5-yl)benzyl)-N-isopropylimidazo[1,5-a]quinoxaline-8-carboxamide]	< 100 nM
Nc1nc2cc(F)c(C(=O)N(Cc3ccc(-c4ccnn4C(F)(F)F)cc3F)C34CC(C3)C4)cc2n2cncc12 [Ff-218, 4-amino-N-(bicyclo[1.1.1]pentan-1-yl)-7-fluoro-N-(2-fluoro-4-(1-(trifluoromethyl)-1H-pyrazol-5-yl)benzyl)imidazo[1,5-a]quinoxaline-8-carboxamide]	< 100 nM
Cn1nccc1-c1ccc(CN(C(=O)c2cc3c(cc2F)nc(N)c2cncn23)C23CC(C2)C3)c(F)c1 [Ff-219, 4-amino-N-(bicyclo[1.1.1]pentan-1-yl)-7-fluoro-N-(2-fluoro-4-(1-methyl-1H-pyrazol-5-yl)benzyl)imidazo[1,5-a]quinoxaline-8-carboxamide]	< 100 nM
Cn1cc(N(Cc2ccc(-c3cnn(C(F)(F)F)c3)cc2F)C(=O)c2cc3c(cc2F)nc(N)c2cncn23)cn1 [Ff-220, 4-amino-7-fluoro-N-(2-fluoro-4-(1-(trifluoromethyl)-1H-pyrazol-4-yl)benzyl)-N-(1-methyl-1H-pyrazol-4-yl)imidazo[1,5-a]quinoxaline-8-carboxamide]	< 100 nM
Cn1cc(N(Cc2ccc(-c3cnn(C(F)F)c3)cc2F)C(=O)c2cc3c(cc2F)nc(N)c2cncn23)cn1 [Ff-221, 4-amino-N-(4-(1-(difluoromethyl)-1H-pyrazol-4-yl)-2-fluorobenzyl)-7-fluoro-N-(1-methyl-1H-pyrazol-4-yl)imidazo[1,5-a]quinoxaline-8-carboxamide]	< 100 nM
Nc1nc2cc(F)c(C(=O)N3CC(F)(F)CCC3c3ccc(C(F)(F)F)cn3)cc2n2cncc12 (stereo not shown) [Ff-222, (4-amino-7-fluoroimidazo[1,5-a]quinoxalin-8-yl)(5,5-difluoro-2-(5-(trifluoromethyl)pyridin-2-yl)piperidin-1-yl)methanone]	< 100 nM
Nc1nc2cc(F)c(C(=O)N3CCC(F)(F)CC3c3ccc(C(F)(F)F)cn3)cc2n2cncc12 (stereo not shown) [Ff-223, (4-amino-7-fluoroimidazo[1,5-a]quinoxalin-8-yl)(4,4-difluoro-2-(5-(trifluoromethyl)pyridin-2-yl)piperidin-1-yl)methanone]	100 to 1000 nM
C[C@@H]1CCN(C(=O)c2cc3c(cc2F)nc(N)c2cncn23)C(c2ccc(C(F)(F)F)cn2)C1 (stereo partly drawn) [Ff-224, (4-amino-7-fluoroimidazo[1,5-a]quinoxalin-8-yl)((4R)-4-methyl-2-(5-(trifluoromethyl)pyridin-2-yl)piperidin-1-yl)methanone]	100 to 1000 nM
Nc1nc2cc(F)c(C(=O)N(Cc3ccc(C(F)(F)F)cc3F)c3ncco3)cc2n2cncc12 [Ff-226, 4-amino-7-fluoro-N-(2-fluoro-4-(trifluoromethyl)benzyl)-N-(oxazol-2-yl)imidazo[1,5-a]quinoxaline-8-carboxamide]	< 100 nM
Nc1nc2cc(F)c(C(=O)N(Cc3ccc(C(F)(F)F)cc3F)c3cnsc3)cc2n2cncc12 [Ff-227, 4-amino-7-fluoro-N-(2-fluoro-4-(trifluoromethyl)benzyl)-N-(isothiazol-4-yl)imidazo[1,5-a]quinoxaline-8-carboxamide]	< 100 nM
CN(C(=O)c1cc2c(cc1F)nc(N)c1cncn12)[C@@H]1COc2cc(-c3ccc(C(F)(F)F)nc3)ccc21 [Ff-229, (S)-4-amino-7-fluoro-N-methyl-N-(6-(6-(trifluoromethyl)pyridin-3-yl)-2,3-dihydrobenzofuran-3-yl)imidazo[1,5-a]quinoxaline-8-carboxamide]	< 100 nM
CN(C(=O)c1cc2c(cc1F)nc(N)c1cncn12)[C@@H]1COc2cc(-c3ccc(C(F)(F)F)cc3)ccc21 [Ff-230, (S)-4-amino-7-fluoro-N-methyl-N-(6-(4-(trifluoromethyl)phenyl)-2,3-dihydrobenzofuran-3-yl)imidazo[1,5-a]quinoxaline-8-carboxamide]	100 to 1000 nM
CN(C(=O)c1cc2c(cc1F)nc(N)c1cncn12)[C@@H]1COc2cc(-c3csc(C(F)(F)F)n3)ccc21 [Ff-231, (S)-4-amino-7-fluoro-N-methyl-N-(6-(2-(trifluoromethyl)thiazol-4-yl)-2,3-dihydrobenzofuran-3-yl)imidazo[1,5-a]quinoxaline-8-carboxamide]	100 to 1000 nM
CN(C(=O)c1cc2c(cc1F)nc(N)c1cncn12)[C@@H]1COc2cc(-c3cnc(C(F)(F)F)s3)ccc21 [Ff-232, (S)-4-amino-7-fluoro-N-methyl-N-(6-(2-(trifluoromethyl)thiazol-5-yl)-2,3-dihydrobenzofuran-3-yl)imidazo[1,5-a]quinoxaline-8-carboxamide]	< 100 nM
CN(C(=O)c1cc2c(cc1F)nc(N)c1cncn12)[C@@H]1COc2cc(-c3cnc(C(F)F)s3)ccc21 [Ff-233, (S)-4-amino-N-(6-(2-(difluoromethyl)thiazol-5-yl)-2,3-dihydrobenzofuran-3-yl)-7-fluoro-N-methylimidazo[1,5-a]quinoxaline-8-carboxamide]	< 100 nM
Nc1nc2cc(F)c(C(=O)N3CCO[C@@H]4Cc5cc(-c6cnn(C(F)(F)F)c6)ccc5[C@@H]43)cc2n2cncc12 [Ff-234, (4-amino-7-fluoroimidazo[1,5-a]quinoxalin-8-yl)((4aS,9aR)-7-(1-(trifluoromethyl)-1H-pyrazol-4-yl)-2,3,9,9a-tetrahydroindeno[2,1-b][1,4]oxazin-4(4aH)-yl)methanone]	100 to 1000 nM
